From patent US20240168030A1, “DIRECT FLUORESCENT GLYCAN LABELING” (BIO-TECHNE CORPORATION, priority 2019, published 2024) come the findings set out here.

One experiment has as its target T1, FUT7 (Homo sapiens, UniProt Q11130).
T1 sequence (Q11130 1-342): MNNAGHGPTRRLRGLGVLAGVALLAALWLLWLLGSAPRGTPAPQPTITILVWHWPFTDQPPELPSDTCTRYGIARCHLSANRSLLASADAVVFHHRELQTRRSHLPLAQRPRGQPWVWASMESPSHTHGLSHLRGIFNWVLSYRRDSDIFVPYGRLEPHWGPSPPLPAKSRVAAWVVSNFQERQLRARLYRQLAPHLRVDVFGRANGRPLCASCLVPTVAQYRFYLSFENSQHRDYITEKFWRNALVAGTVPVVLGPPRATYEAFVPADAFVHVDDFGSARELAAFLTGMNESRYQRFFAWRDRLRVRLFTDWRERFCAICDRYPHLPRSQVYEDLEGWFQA
The experiment in a line: Fluorescent labeling with fluorophore-conjugated fucose by FUT7. Type of experiment: biochemical. Details: key to Tolerance of the fluorophore by FUT7: +++: indicated by number of + signs; ++: indicated by number of + signs; indicated by number of + signs. Particulars: for Tolerance of the fluorophore by FUT7: fluorophore-conjugated fucose donor, acceptor GlcNAc of sialylactosamine, FIG. 9. As for the experimental part:
(§1) FIG. 9A-FIG. 9B show exemplary results of probing substrate glycans of various fucosyltransferases on fetuin and asialofetuin. FIG. 9A. Probing substrate glycans of fucosyltransferases with guanosine 5′-diphosphate activated Cy5 conjugated fucose (GDP-Cy5-Fuc). […] FUT9 labeled itself (indicated by an arrow in the gel). FIG. 9B. Tolerance of Alexa-Fluor®555 (555), Alexa-Fluor®488 (488), and Cy5 by the indicated fucosyltransferases. All reactions were incubated at 37° C. for 30 minutes and then separated on SDS-PAGE and imaged with silver staining (upper panels) and fluorescent imager (lower panels). M, molecular marker.
(§2) For a typical labeling reaction, 1 μg to 5 μg target protein was mixed with 0.2 nmol GDP-f-Fuc and 0.2 μg of a fucosyltransferase in 30 μL buffer of 25 mM Tris pH 7.5, 10 mM MnCl2. The mixture was incubated at 37° C. for 30 minutes. The reaction was then separated by sodium dodecyl sulfate—polyacrylamide gel electrophoresis (SDS-PAGE) and the gel was directly imaged using a fluorescent imager FluorChem M ProteinSimple, Bio-Techne, Minneapolis, MN), followed by imaging with traditional protein imaging methods such as silver staining or trichloroethanol (TCE) staining.
(§3) The four enzymes tolerated the three fluorophores to different levels.

In the next experiment the target is T2, FUT9 (Homo sapiens, UniProt Q9Y231).
T2 construct: purchased Bio-Techne (Minneapolis, MN)
T2 sequence (Q9Y231 1-359): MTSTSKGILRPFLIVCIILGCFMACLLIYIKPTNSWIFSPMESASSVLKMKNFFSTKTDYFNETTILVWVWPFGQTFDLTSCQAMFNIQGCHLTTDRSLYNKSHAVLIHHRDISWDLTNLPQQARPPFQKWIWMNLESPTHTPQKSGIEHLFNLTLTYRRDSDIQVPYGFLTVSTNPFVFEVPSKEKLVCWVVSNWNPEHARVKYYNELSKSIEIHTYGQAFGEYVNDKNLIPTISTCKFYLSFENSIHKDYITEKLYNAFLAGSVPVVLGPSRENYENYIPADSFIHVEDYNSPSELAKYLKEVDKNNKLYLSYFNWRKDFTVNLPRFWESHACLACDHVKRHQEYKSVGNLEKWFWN
The experiment can be described thus: Fluorescent labeling with fluorophore-conjugated fucose by FUT9. Type of experiment: biochemical. Details: key to Tolerance of the fluorophore by FUT9: +++: indicated by number of + signs; ++: indicated by number of + signs; indicated by number of + signs. Particulars: for Tolerance of the fluorophore by FUT9: fluorophore-conjugated fucose donor, acceptor GlcNAc of lactosamine, FIG. 9. As for the experimental part: as §1
FIG. 10A-FIG. 10D show exemplary results of probing core-6 fucosylation on antibodies by FUT8 incorporation of fluorophores. FIG. 10A. Results of probing substrate glycans of FUT8 (F8) and FUT9 (F9) on Cantuzumab, an anti-Muc1 therapeutic antibody, and NIST reference mAb 8671 using guanosine 5′-diphosphate activated Alexa-Fluor®555 conjugated fucose (GDP-AF555-Fuc) (555), GDP-Cy5-fucose (Cy5), and guanosine 5′-diphosphate activated Alexa-Fluor®488 conjugated fucose (GDP-AF488-Fuc) (488) as donor substrates. Cantuzumab was expressed in FUT8 knockout cells and is devoid of core-6 fucose. Molecular marker (MM) is a prestained Western molecular marker (Bio-Rad Laboratories, Hercules, CA). […] The product of each reaction was separated using SDS-PAGE and imaged with trichloroethanol (TCE) staining (upper panel) and fluorescent imager (lower panel). Labeling on the light chains of the antibodies by Alexa-Fluor®555 is likely the result of non-specific staining due to the use of unpurified GDP-AF555-Fuc that contained free Alexa-Fluor®555. FIG. 10B. […] FIG. 10C. […] FIG. 10D. Schematics of the glycan structures analyzed in FIG. 10B and FIG. 10C.
Mouse IgG (R&D Systems, Minneapolis, MN) was digested with Endo S thoroughly and labeled with 0.3 μg of FUT9 and 0.2 nmol of GDP-Cy5-Fuc in 30 μl at 37° C. for the indicated time points. The glycans were also pretreated with B4GalT2 for 5 minutes at 37° C. and then labeled in the same way. The reactions were separated on 15% SDS PAGE. B4GalT2 pretreatment converted all G1′ to G2′. Maximal labeling on G1′ and G2′ were achieved around 30 minutes. […] The heavy chain (HC) and light chain (LC) were visible in the TCE image. M, Western blot marker (Bio-Rad Laboratories, Hercules, CA).
as §2, §3

Setting [1] is: among Cy5-, AlexaFluor® 488-, and AlexaFluor® 555-conjugated fucoses, FIG. 9B.

For the substance “guanosine 5′-diphosphate activated Alexa-Fluor®488 conjugated fucose [GDP-AF488-Fuc]”, the “Fluorophore preference of FUT7” value on FUT7 (setting [1]) is listed as “preferred”. In addition, the “Tolerance of the fluorophore by FUT7” value at FUT7 was “++”. Besides, the “Tolerance of the fluorophore by FUT9” value on FUT9 is listed as “+++”.

For the substance “guanosine 5′-diphosphate activated Alexa-Fluor®555 conjugated fucose [GDP-AF555-Fuc]”, on FUT7, the “Tolerance of the fluorophore by FUT7” value was “+”. In addition, the “Fluorophore preference of FUT9” value at FUT9 (setting [1]) was “preferred”. At FUT9, the “Tolerance of the fluorophore by FUT9” value was “+++”.
